Results taken from PubChem BioAssay (NCI).
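Following 48 hours of exposure in 96-well plates, responses at five concentrations were used to interpolate endpoints linearly. At the TGI there is no net growth.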

Experiments:
Assay in all cases: NCI anticancer screen, dose series, 48 h
IGROV1 ovarian = system: IGROV1 ovarian
HT29 colon = system: HT29 colon
SK-MEL-5 melanoma = system: SK-MEL-5 melanoma
OVCAR-4 ovarian = system: OVCAR-4 ovarian
EKVX NSCLC = system: EKVX NSCLC
SK-OV-3 ovarian = system: SK-OV-3 ovarian
UO-31 renal = system: UO-31 renal
MDA-MB-435 = system: MDA-MB-435
UACC-62 melanoma = system: UACC-62 melanoma
NCI-H460 lung = system: NCI-H460 lung

SMILES	TGI (IGROV1 ovarian) [µM]	TGI (HT29 colon) [µM]	TGI (SK-MEL-5 melanoma) [µM]	TGI (OVCAR-4 ovarian) [µM]	TGI (EKVX NSCLC) [µM]	TGI (SK-OV-3 ovarian) [µM]	TGI (UO-31 renal) [µM]	TGI (MDA-MB-435) [µM]	TGI (UACC-62 melanoma) [µM]	TGI (NCI-H460 lung) [µM]
O=[Se](O)O	2.43	> 91.8	8.68	21.1	15.7	12.8	7.36	> 100	4.66	> 49.9
C[C@H](C1CC2(C)OC2(C)C(=O)O1)[C@H]1CC[C@H]2[C@@H]3[C@@H]4O[C@@H]4[C@@]4(O)CC=CC(=O)[C@]4(C)[C@H]3CC[C@]12C (stereo not given in full)	> 50	> 50	> 50	> 50	> 50	> 50	> 50	> 50	> 50	> 50
CC(C)Oc1cccc(N2C(Nc3ccccc3)=Nc3ccncc3S2(=O)=O)c1	87.6	> 100	26.6	> 100	> 100	> 100	> 100	57	> 100	> 100
Cc1nc(-c2cc3ccccc3oc2=O)cs1	> 100	> 100	> 100	> 100	> 100	> 100	> 100	> 100	> 100	> 100
NCCSCCC(=O)O	> 100	> 100	> 85.3	> 100	> 100	> 100	> 100	> 100	> 70.9	> 37.9
O=C(OCc1ccccc1)N1CCNCCNCCN(C(=O)OCc2ccccc2)CCNCC1	91.3	32.9	27.1	> 100	65.1	> 100	27.8	29.6	31.7	52.1
Cc1ccccc1NC(=O)CC(=O)NNC(Sc1ccccc1)c1cc(N=Nc2ccc(Br)cc2)ccc1O (stereo not given)	> 10	> 10	3.42	> 10	> 10	> 10	> 10	> 10	8.65	> 10
O=c1[nH]nc(Cc2ccc(Cl)cc2)n1/N=C/c1ccc([N+](=O)[O-])o1	11.2	> 41.1	> 38.5	15.9	13.8	> 36.3	> 24	11.9	9.09	> 36.2
NC(=O)CN1C=CCC(C(N)=O)=C1	> 100	> 100	> 100	> 100	> 100	> 100	> 100	> 100	> 100	> 100
COc1ccccc1NC(=O)CC(=O)NN	> 100	> 100	> 100	> 100	> 100	> 100	> 100	> 100	> 100	> 100
CCOC(=O)CCC(C(=O)OCC)n1nnc2cc(Nc3c(C)[n+]([O-])c4cc(F)c(OCC)cc4[n+]3[O-])ccc21 (stereo not given)	> 100	> 100	> 100	> 100	> 100	> 100	> 100	> 100	> 100	> 100
Cc1c([C@H](C)[C@@H]2NC[C@@H](C)C[C@H]2O)ccc2c1C[C@H]1[C@H]2CC=C2C[C@@H](O)CC[C@@]21C	43.9	42	22.9	40	8.53	76.9	37.5	26.4	28.1	41.4
Cc1c2cccc-2ccc2c3ccccc3n(C(=O)c3ccc(Cl)cc3)c12	> 100	> 100	> 100	> 100	> 100	> 100	> 100	> 100	> 100	> 100
COC(=O)Nc1nc2ccc(NC(=O)c3ccc(I)cc3)cc2[nH]1	> 100	> 100	> 100	> 100	> 100	> 100	> 100	> 100	> 100	> 100
COc1cc2nc(-c3cccs3)nc(Nc3cccc(Cl)c3)c2cc1OC	> 100	> 100	> 100	> 100	> 100	> 100	> 100	> 100	> 100	> 100
CC(CNC(N)=O)NC(N)=O (stereo not given)	> 100	> 100	> 100	> 100	> 100	> 100	> 100	> 100	> 100	> 100
CC1(C)C=C(/C=N/Nc2ccccc2)C(C#N)=C(O)C1(C#N)C#N	> 100	> 100	> 100	> 100	> 100	> 100	> 100	> 100	> 100	> 100
O=C(Nc1nn[nH]n1)c1nc(-c2ccccc2)cc(=O)[nH]1	> 100	> 100	> 100	> 100	> 100	> 100	> 100	> 100	> 100	> 100
CC1CCC2(OC1)OC1C(O)C3C4CCC5CC(OC6OC(CO)C(OC7OC(CO)C(O)C(OC8OCC(O)C(O)C8O)C7OC7OC(CO)C(O)C(OC8OC(CO)C(O)C(O)C8O)C7O)C(O)C6O)C(O)CC5(C)C4CCC3(C)C1C2C (stereo not given)	6.7	11.8	15.9	4.04	9.8	5.57	3.66	30	14.1	3.35
O=C1NC(Cc2ccc(O)cc2)C(=O)NC1Cc1ccc(O)cc1 (stereo not given)	> 100	> 100	> 100	> 100	> 100	> 100	> 100	> 100	> 100	> 100
CC(C)=CCC[C@@H](C)C1=C(O)C(Nc2ccccc2I)=C(C)C(=O)C1=O	17.9	28	23	> 75	> 75	61.5	35.7	> 75	31.3	> 75
N#Cc1c(N)nc2c3c1NC(=O)C(C(N)=O)C3c1ccccc1O2 (stereo not given)	79.8	> 100	> 100	> 100	> 100	> 100	> 100	> 100	> 100	> 100
CC(=O)OC[C@H]1On2nnnc2[C@H](OC(C)=O)[C@@H](OC(C)=O)[C@@H]1OC(C)=O	> 100	> 100	> 100	> 100	> 100	> 100	> 100	> 100	> 100	> 100
CC(=O)OCC1OC(n2c(C)c(C)c(C)c(C#N)c2=S)C(OC(C)=O)C(OC(C)=O)C1OC(C)=O (stereo not given)	> 100	> 100	> 100	> 100	94.3	80.9	59.7	> 100	> 100	> 100
Cc1ncc(COP(=O)(O)O)c(/C=C2\SC(=S)NC2=O)c1O	> 100	> 100	> 100	> 100	> 100	> 100	> 100	> 100	> 100	> 100
COc1ccc2cc(C(C)C(=O)N3C(=O)OCC3(C)C)ccc2c1 (stereo not given)	> 100	> 100	> 100	> 100	> 100	> 100	> 100	> 100	> 100	> 100
COC1=CC(=O)N(C)C(O)C1(C#N)OC1OC(CO)C(O)C(O)C1O (stereo not given)	> 100	> 10	> 100	> 100	> 100	> 100	> 100	> 100	> 100	> 100
CCCCCCCCOc1ccc(/C=C/C2=[N+](CCO)CCO2)cc1	13.8	8.26	7.04	14.2	14.9	11.9	25.1	14.5	17.2	10.5
